Results from patent US7138361B2, “Herbicidal heterocycles” (E. I. du Pont de Nemours and Company, priority 2000, dated 2006).

How the values were obtained:
Assay type in all cases: in vivo
[1] = tested on: Surinam grass (Brachiaria decumbens); assay: Test B postemergence; settings: 13 to 15 days
Excerpt: (§1) Seeds selected from barnyardgrass (Echinochloa crus-galli), Surinam grass (Brachiaria decumbens), cocklebur (Xanthium strumarium), corn (Zea mays), crabgrass (Digitaria sanguinalis), giant foxtail (Setaria faberii), lambsquarters (Chenopodium album), morning glory (Ipomoea hederacea), pigweed (Amaranthus retroflexus), rice (Oryza saliva) and velvetleaf (Abutilon theophrasti) were planted and treated preemergence with test chemicals formulated in a non-phytotoxic solvent mixture which included a surfactant.
(§2) At the same time, plants selected from these crop and weed species and also blackgrass (Alopecurus myosuroides), wheat (Triticum aestivum) and wild oat (Avena fatua) were treated with postemergence applications of test chemicals formulated in the same manner. Plants ranged in height from 2 to 18 cm (1- to 4-leaf stage) for postemergence treatments. Plant species in the flooded paddy test consisted of rice (Oryza saliva), smallflower flatsedge (Cyperus difformis), duck salad (Heteranthera limosa) and barnyardgrass (Echinochloa crus-galli) grown to the 2-leaf stage for testing. Treated plants and controls were maintained in a greenhouse for 13 to 15 days, after which time all species were compared to controls and visually evaluated. Plant response ratings, summarized in Table B, are based on a scale of 0 to 100 where 0 is no effect and 100 is complete control. A dash (-) response means no test result.

[2] = tested on: barnyardgrass (Echinochloa crus-galli); assay: Test B postemergence; settings: 13 to 15 days
Excerpt: as §1, §2

[3] = tested on: blackgrass (Alopecurus myosuroides); assay: Test B postemergence; settings: 13 to 15 days
Excerpt: as §1, §2

corn (Zea mays) [4] = assay: Test B postemergence; settings: 13 to 15 days
Excerpt: as §1, §2

[5] = tested on: crabgrass (Digitaria sanguinalis); assay: Test B postemergence; settings: 13 to 15 days
Excerpt: as §1, §2

[6] = tested on: giant foxtail (Setaria faberii); assay: Test B postemergence; settings: 13 to 15 days
Excerpt: as §1, §2

[7] = tested on: lambsquarters (Chenopodium album); assay: Test B postemergence; settings: Rate 500 g/ha, scale 0 to 100, 0 is no effect, 100 is complete control, 13 to 15 days
Excerpt: as §1, §2

[8] = tested on: morning glory (Ipomoea hederacea); assay: Test B postemergence; settings: Rate 500 g/ha, scale 0 to 100, 0 is no effect, 100 is complete control, 13 to 15 days
Excerpt: as §1, §2

[9] = tested on: pigweed (Amaranthus retroflexus); assay: Test B postemergence; settings: Rate 500 g/ha, scale 0 to 100, 0 is no effect, 100 is complete control, 13 to 15 days
Excerpt: as §1, §2

[10] = tested on: velvetleaf (Abutilon theophrasti); assay: Test B postemergence; settings: Rate 500 g/ha, scale 0 to 100, 0 is no effect, 100 is complete control, 13 to 15 days
Excerpt: as §1, §2

[11] = tested on: wheat (Triticum aestivum); assay: Test B postemergence; settings: Rate 500 g/ha, scale 0 to 100, 0 is no effect, 100 is complete control, 13 to 15 days
Excerpt: as §1, §2

wild oat (Avena fatua) = assay: Test B postemergence; settings: Rate 500 g/ha, scale 0 to 100, 0 is no effect, 100 is complete control, 13 to 15 days
Excerpt: as §1, §2

[12] = tested on: Surinam grass (Brachiaria decumbens); assay: Test B preemergence
Excerpt: as §1, §2

[13] = tested on: barnyardgrass (Echinochloa crus-galli); assay: Test B preemergence
Excerpt: as §1, §2

[14] = tested on: cocklebur (Xanthium strumarium); assay: Test B preemergence
Excerpt: as §1, §2

corn (Zea mays) [15] = assay: Test B preemergence
Excerpt: as §1, §2

[16] = tested on: crabgrass (Digitaria sanguinalis); assay: Test B preemergence
Excerpt: as §1, §2

[17] = tested on: giant foxtail (Setaria faberii); assay: Test B preemergence
Excerpt: as §1, §2

[18] = tested on: lambsquarters (Chenopodium album); assay: Test B preemergence
Excerpt: as §1, §2

[19] = tested on: morning glory (Ipomoea hederacea); assay: Test B preemergence
Excerpt: as §1, §2

[20] = tested on: pigweed (Amaranthus retroflexus); assay: Test B preemergence
Excerpt: as §1, §2

rice (Oryza saliva) [21] = assay: Test B preemergence
Excerpt: as §1, §2

[22] = tested on: velvetleaf (Abutilon theophrasti); assay: Test B preemergence
Excerpt: as §1, §2

[23] = tested on: barnyardgrass (Echinochloa crus-galli); assay: Test C flooded paddy test; settings: for Barnyardgrass plant response rating: Flooded Paddy, scale 0 to 100, 0 no effect, 100 complete control; for Plant response rating, Barnyardgrass: flooded paddy test, scale 0 to 100 (0 no effect, 100 complete control)
Description: (§3) At the same time, plants selected from these crop and weed species and also winter barley (Hordeum vulgare), blackgrass (Alopecurus myosuroides), canary grass (Phalaris minor), chickweed (Stellaria media), downy brome (Bromus tectorum), green foxtail (Setaria viridis), Italian ryegrass (Lolium multiflorum), wheat (Triticum aestivum), wild oat (Avena fatua) and windgrass (Apera spica-venti) were treated with postemergence applications of some of the test chemicals formulated in the same manner. Plants ranged in height from 2 to 18 cm (1- to 4-leaf stage) for postemergence treatments. Plant species in the flooded paddy test consisted of rice (Oryza saliva), smallflower flatsedge (Cyperus difformis), duck salad (Heteranthera limosa) and barnyardgrass (Echinochloa crus-galli) grown to the 2-leaf stage for testing. Treated plants and controls were maintained in a greenhouse for 12 to 14 days, after which time all species were compared to controls and visually evaluated. Plant response ratings, summarized in Table C, are based on a scale of 0 to 100 where 0 is no effect and 100 is complete control. A dash (-) response means no test result.

[24] = tested on: duck salad (Heteranthera limosa); assay: Test C flooded paddy test; settings: for Ducksalad plant response rating: Flooded Paddy, scale 0 to 100, 0 no effect, 100 complete control; for Plant response rating, Ducksalad: flooded paddy test, scale 0 to 100 (0 no effect, 100 complete control)
Description: as §3

rice (Oryza saliva) [25] = assay: Test C flooded paddy test; settings: for Rice plant response rating: Flooded Paddy, scale 0 to 100, 0 no effect, 100 complete control; for Plant response rating, Rice: flooded paddy test, scale 0 to 100 (0 no effect, 100 complete control)
Description: as §3

[26] = tested on: smallflower flatsedge (Cyperus difformis); assay: Test C flooded paddy test; settings: for Flatsedge plant response rating: Flooded Paddy, scale 0 to 100, 0 no effect, 100 complete control; for Plant response rating, Flatsedge: flooded paddy test, scale 0 to 100 (0 no effect, 100 complete control)
Description: as §3

[27] = Rate 125 g/ha, scale 0 (no effect) to 100 (complete control)
[28] = Rate 500 g/ha, scale 0 to 100, 0 is no effect, 100 is complete control
[29] = Preemergence, Rate 500 g/ha, scale 0 to 100, 0 no effect, 100 complete control
[30] = preemergence, Rate 125 g/ha, scale of 0 to 100 where 0 is no effect and 100 is complete control, 13 to 15 days

CC(C)(C)c1ccn(C2CCN(c3ccc4c(c3)CCC4)C2=O)n1 (centres unmarked) [Compound 105]
Plant response rating, Surinam grass [1, 27]: 0 | Plant response rating, Surinam grass [1, 28]: 0 | Plant response rating, Barnyardgrass [2, 27]: 0 | Plant response rating, Barnyardgrass [2, 28]: 0 | Plant response rating, Blackgrass [3, 27]: 0 | Plant response rating, Blackgrass [3, 28]: 0 | Plant response rating, Corn (corn (Zea mays) [4]; [27]): 0 | Plant response rating, Corn (corn (Zea mays) [4]; [28]): 0 | Plant response rating, Crabgrass [5, 27]: 0 | Plant response rating, Crabgrass [5, 28]: 0 | Plant response rating, Foxtail, Giant [6, 27]: 0 | Plant response rating, Foxtail, Giant [6, 28]: 0 | Plant response rating, Lambsquarters [7]: 0 | Plant response rating, Morningglory [8]: 0 | Plant response rating, Pigweed [9]: 0 | Plant response rating, Velvetleaf [10]: 0 | Plant response rating, Wheat [11]: 0 | Plant response rating, Wild Oat (wild oat (Avena fatua)): 0 | Plant response rating, Surinam grass [12, 29]: 0 | Plant response rating, Surinam grass [12, 30]: 0 | Plant response rating, Barnyardgrass [13, 29]: 0 | Plant response rating, Barnyardgrass [13, 30]: 0 | Plant response rating, Cocklebur [14, 29]: 0 | Plant response rating, Cocklebur [14, 30]: 0 | Plant response rating, Corn (corn (Zea mays) [15]; [29]): 0 | Plant response rating, Corn (corn (Zea mays) [15]; [30]): 0 | Plant response rating, Crabgrass [16, 29]: 30 | Plant response rating, Crabgrass [16, 30]: 0 | Plant response rating, Foxtail, Giant [17, 29]: 20 | Plant response rating, Foxtail, Giant [17, 30]: 0 | Plant response rating, Lambsquarters [18, 29]: 100 | Plant response rating, Lambsquarters [18, 30]: 60 | Plant response rating, Morningglory [19, 29]: 0 | Plant response rating, Morningglory [19, 30]: 0 | Plant response rating, Pigweed [20, 29]: 100 | Plant response rating, Pigweed [20, 30]: 0 | Plant response rating, Rice (rice (Oryza saliva) [21]; [29]): 0 | Plant response rating, Rice (rice (Oryza saliva) [21]; [30]): 0 | Plant response rating, Velvetleaf [22, 29]: 0 | Plant response rating, Velvetleaf [22, 30]: 0 | Barnyardgrass plant response rating ([23]; Rate 250 g/ha): 20 | Barnyardgrass plant response rating ([23]; Rate 500 g/ha): 60 | Plant response rating, Barnyardgrass ([23]; Rate 62 g/ha): 0 | Plant response rating, Barnyardgrass ([23]; Rate 125 g/ha): 0 | Ducksalad plant response rating ([24]; Rate 250 g/ha): 0 | Ducksalad plant response rating ([24]; Rate 500 g/ha): 0 | Plant response rating, Ducksalad ([24]; Rate 62 g/ha): 0 | Plant response rating, Ducksalad ([24]; Rate 125 g/ha): 0 | Rice plant response rating (rice (Oryza saliva) [25]; Rate 250 g/ha): 20 | Rice plant response rating (rice (Oryza saliva) [25]; Rate 500 g/ha): 30 | Plant response rating, Rice (rice (Oryza saliva) [25]; Rate 62 g/ha): 0 | Plant response rating, Rice (rice (Oryza saliva) [25]; Rate 125 g/ha): 0 | Flatsedge plant response rating ([26]; Rate 250 g/ha): 90 | Flatsedge plant response rating ([26]; Rate 500 g/ha): 90 | Plant response rating, Flatsedge ([26]; Rate 62 g/ha): 40 | Plant response rating, Flatsedge ([26]; Rate 125 g/ha): 90
